Our source for the pest or weed control values is patent US20220046923A1, “HERBICIDAL CINNOLINIUM COMPOUNDS” (SYNGENTA CROP PROTECTION AG, priority 2018, published 2022).

Test in all cases: Post-emergence efficacy, glasshouse spray test
Holding throughout (format): in vivo

The subject of assay [1] is Amaranthus palmeri (AMAPA). Particulars: Amaranthus palmeri, post-emergence, 312 h; application rate 1000 g/Ha; evaluated after 13 days; read-out: Control of weed species AMAPA after post-emergence application (100=total damage to plant; 0=no damage to plant). An outline of the steps:
(§1)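 Visual damage score 13 days after spraying, 0 (no damage) to 100 (plant killed). Pot-grown plants were treated at 14 days post-sowing with aqueous spray of compound formulated in acetone/IF50, diluted with 0.25% or 1% Empicol ESC70 plus 1% ammonium sulphate; glasshouse kept at 24/16 °C, 14 h light, 65% RH.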

For assay [2], the system named is Ipomoea hederacea (IPOHE). The settings on record: Ipomoea hederacea, post-emergence, 312 h; application rate 1000 g/Ha; evaluated after 13 days; read-out: Control of weed species IPOHE after post-emergence application (100=total damage to plant; 0=no damage to plant). An outline of the steps: as §1
Assay [3] has as its system Lolium perenne (LOLPE). The settings on record: Lolium perenne, post-emergence, 312 h; application rate 1000 g/Ha; evaluated after 13 days; read-out: Control of weed species LOLPE after post-emergence application (100=total damage to plant; 0=no damage to plant). An outline of the steps:
as §1

Assay [4] concerns Euphorbia heterophylla (EPHHL). The settings on record: Euphorbia heterophylla, post-emergence, 312 h; application rate 1000 g/Ha; evaluated after 13 days; read-out: Control of weed species EPHHL after post-emergence application (100=total damage to plant; 0=no damage to plant). An outline of the steps:
as §1

The subject of assay [5] is Setaria faberi (SETFA). Particulars: Setaria faberi, post-emergence, 312 h; application rate 1000 g/Ha; evaluated after 13 days; read-out: Control of weed species SETFA after post-emergence application (100=total damage to plant; 0=no damage to plant). An outline of the steps:
as §1

The subject of assay [6] is Echinochloa crus-galli (ECHCG). The settings on record: Echinochloa crus-galli, post-emergence, 312 h; application rate 1000 g/Ha; evaluated after 13 days; read-out: Control of weed species ECHCG after post-emergence application (100=total damage to plant; 0=no damage to plant). An outline of the steps: as §1
In assay [7] the test system is Chenopodium album (CHEAL). The settings on record: Chenopodium album, post-emergence, 312 h; application rate 1000 g/Ha; evaluated after 13 days; read-out: Control of weed species CHEAL after post-emergence application (100=total damage to plant; 0=no damage to plant). An outline of the steps: as §1
Assay [8] deals with Digitaria sanguinalis (DIGSA). Particulars: Digitaria sanguinalis, post-emergence, 312 h; application rate 1000 g/Ha; evaluated after 13 days; read-out: Control of weed species DIGSA after post-emergence application (100=total damage to plant; 0=no damage to plant). An outline of the steps: as §1
The subject of assay [9] is Eleusine indica (ELEIN). Particulars: Eleusine indica, post-emergence, 312 h; application rate 1000 g/Ha; evaluated after 13 days; read-out: Control of weed species ELEIN after post-emergence application (100=total damage to plant; 0=no damage to plant). An outline of the steps:
as §1

SMILES strings stand for the structures.

Regarding `COC(=O)CC[n+]1cc(C)c2ccccc2n1` [Compound A63], the pest or weed control at 1000 g/ha in [1] worked out at 40%; in assay [2], 10%; in assay [3] it was 30%; in [4] it was 20%; in [5], 10%; in assay [6], 10%. Moreover, the pest or weed control at 1000 g/ha in [7] turned out to be 50%; in [8], 20%; in assay [9] it was 40%.
As to `Cc1c[n+](CCC(=O)O)nc2ccccc12` [Compound A64], the pest or weed control at 1000 g/ha in assay [1] came out at 70%; in assay [2], 20%; in [3] it was 10%; in assay [4] it was 70%; in assay [5] it was 30%; in assay [6] it was 40%. In addition, the results for the pest or weed control at 1000 g/ha in [7], in [8] and in assay [9] were 70%, 50% and 50%, respectively.
Regarding `O=C(O)CC[n+]1ccc2ccccc2n1` [Compound A65], the pest or weed control at 1000 g/ha in assay [1] came to 80%; in assay [2], 60%; in assay [3] it was 40%; in assay [4] it was 90%; in assay [5], 60%; in assay [6], 70%. Besides, the pest or weed control at 1000 g/ha turned out to be 80% in assay [7], 90% in [8] and 90% in assay [9].
Consider `Cc1c[n+](CC(=O)O)nc2ccccc12` [Compound A66], for which the pest or weed control at 1000 g/ha in [1] stood at 20%; in [2], 30%; in assay [3], 0%; in assay [4], 20%; in assay [5], 0%; in assay [6], 0%. The values for the pest or weed control at 1000 g/ha in [7], in assay [8] and in [9] were 60%, 0% and 20%, respectively.
Consider `O=S(=O)([O-])CCC[n+]1ccc2ccccc2n1` [Compound A67], for which the pest or weed control at 1000 g/ha is 100% in assay [1]; 80% in [2]; 80% in assay [3]; 70% in [4]; 80% in [5]; 60% in [6]. Further, the results for the pest or weed control at 1000 g/ha in [7], in assay [8] and in assay [9] were 90%, 80% and 80%, respectively.
Regarding `COc1ccc2n[n+](CC(=O)[O-])ccc2c1` [Compound A68], the pest or weed control at 1000 g/ha in assay [1] turned out to be 60%; in assay [2], 20%; in assay [3] it was 10%; in assay [4], 20%; in [5], 30%; in [6] it was 50%. Moreover, the pest or weed control at 1000 g/ha was found to be 50% in [7], 30% in [8] and 20% in [9].
Take `Cc1ccc2n[n+](CC(=O)[O-])ccc2c1` [Compound A69]: the pest or weed control at 1000 g/ha in assay [1] turned out to be 30%; in [2], 0%; in assay [3] it was 0%; in [4], 40%; in assay [5], 30%; in [6], 40%. The values for the pest or weed control at 1000 g/ha in assay [7], in assay [8] and in assay [9] were 0%, 30% and 30%, respectively.
In the case of `O=P(O)(O)CCC[n+]1ccc2ccccc2n1` [Compound A70], the pest or weed control at 1000 g/ha in assay [1] is 80%; in [2], 100%; in assay [3], 40%; in assay [4], 80%; in assay [5], 60%; in assay [6], 40%. Further, the pest or weed control at 1000 g/ha was determined as 90% in assay [7], 80% in assay [8] and 90% in assay [9].
Turning to `O=P([O-])(O)CC[n+]1ccc2ccccc2n1` [Compound A71], the pest or weed control at 1000 g/ha in [1] came to 70%; in assay [2], 40%; in [3], 30%; in assay [4] it was 90%; in [5], 70%; in [6], 40%. Besides, the pest or weed control at 1000 g/ha came to 100% in assay [7], 80% in assay [8] and 70% in [9].
As to `COP(=O)([O-])CCC[n+]1ccc2ccccc2n1` [Compound A72, 3-cinnolin-2-ium-2-ylpropyl(methoxy)phosphinate], the pest or weed control at 1000 g/ha in [1] came to 70%; in assay [2], 100%; in assay [3], 50%; in assay [4] it was 50%; in [5] it was 60%; in assay [6] it was 50%. Further, the pest or weed control at 1000 g/ha in assay [7] came to 70%; in assay [8], 50%; in assay [9], 70%.
With `O=P(O)(O)C[n+]1ccc2ccccc2n1` [Compound A73, cinnolin-2-ium-2-ylmethyl(hydroxy)phosphinate chloride], the pest or weed control at 1000 g/ha in assay [1] is 10%; in [2] it was 30%; in assay [3], 10%; in assay [4], 10%; in [5] it was 0%; in assay [6], 10%. The values for the pest or weed control at 1000 g/ha in assay [7], in assay [8] and in assay [9] were 0%, 10% and 10%, respectively.
For the compound `O=C([O-])C[C@H](O)C[n+]1ccc2ccccc2n1` [Compound A74, (3S)-4-cinnolin-2-ium-2-yl-3-hydroxy-butanoate], the pest or weed control at 1000 g/ha in assay [1] came to 0%; in assay [2] it was 10%; in assay [3], 0%; in assay [4] it was 10%; in assay [5], 0%; in [6], 0%. Further, the pest or weed control at 1000 g/ha in assay [7], in assay [8] and in [9] was 0% in each case.
With `Cc1cc2ccccc2n[n+]1CCOS(=O)(=O)[O-]` [Compound A75], the pest or weed control at 1000 g/ha in [1] was 100%; in [2] it was 30%; in [3], 20%; in assay [4], 40%; in assay [5], 30%; in assay [6], 30%. Also, the pest or weed control at 1000 g/ha amounted to 90% in [7], 70% in assay [8] and 80% in assay [9].
